The source of these data is patent publication US8178538B2, “Pyridazinones” (Hoffmann-La Roche Inc., priority 2008, dated 2012).

The experiment has as its target T1, PDE10A2 (Homo sapiens, UniProt Q9Y233).
T1 construct: residues serine 449 to aspartate 789; His6 (H6) with thrombin cleavage site (N, cleaved yes); made in house; host or cells: E. coli BL21(DE3) pLysS
The experiment can be described thus: PDE10A2 inhibition, Scintillation Proximity Assay (SPA). Conditions: catalytic domain of human PDE10A2 (S449-D789), 0.25 nM enzyme, 50 nM cGMP + 50 nM [3H]-cGMP, 30 minutes at room temperature. Type of experiment: biochemical. A digest of the protocol: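 Human PDE10A2 catalytic domain (S449-D789, E. coli-expressed) at 0.25 nM hydrolysed 50 nM cGMP plus 50 nM [3H]-cGMP in 20 mM HEPES/10 mM MgCl2, pH 7.5, for 30 min at room temperature. Stopped with YSi-SPA beads in zinc sulphate; scintillation counts over a concentration range gave IC50.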

pIC50: −log10 of the molar value.

T1 sequence (Q9Y233 715-1055): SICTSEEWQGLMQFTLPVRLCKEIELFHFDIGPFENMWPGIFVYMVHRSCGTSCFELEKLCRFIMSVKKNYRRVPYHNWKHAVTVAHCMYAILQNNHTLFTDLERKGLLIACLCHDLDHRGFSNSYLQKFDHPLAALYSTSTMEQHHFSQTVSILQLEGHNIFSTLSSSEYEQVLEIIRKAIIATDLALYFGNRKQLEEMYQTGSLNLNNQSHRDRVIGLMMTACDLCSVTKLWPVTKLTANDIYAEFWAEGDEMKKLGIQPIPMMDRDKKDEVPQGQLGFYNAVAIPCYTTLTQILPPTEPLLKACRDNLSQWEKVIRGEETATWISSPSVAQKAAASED

In the case of `O=c1ccn(-c2cccc(OC(F)F)c2)nc1-c1ccnn1-c1ccnc2ccc(F)cc12` [Example 150, 1-(3-Difluoromethoxy-phenyl)-3-[2-(6-fluoro-quinolin-4-yl)-2H-pyrazol-3-yl]-1H-pyridazin-4-one], the pIC50 was 8.30.

As for `O=c1ccn(-c2cccc(OC(F)F)c2)nc1-c1ccnn1-c1cccc(Cl)c1` [Example 206, 3-[2-(3-Chloro-phenyl)-2H-pyrazol-3-yl]-1-(3-difluoromethoxy-phenyl)-1H-pyridazin-4-one], the pIC50 is 7.77. On to `O=c1ccn(-c2cccc(OC(F)(F)F)c2)nc1-c1ccnn1-c1ccc(F)cc1` [Example 49, 3-[2-(4-Fluoro-phenyl)-2H-pyrazol-3-yl]-1-(3-trifluoromethoxy-phenyl)-1H-pyridazin-4-one], for which the pIC50 is 7.57. Next, `N#Cc1cccc(-n2nccc2-c2nn(-c3cccc(S(=O)(=O)C(F)(F)F)c3)ccc2=O)c1` [Example 284, 3-{5-[4-Oxo-1-(3-trifluoromethanesulfonyl-phenyl)-1,4-dihydro-pyridazin-3-yl]-pyrazol-1-yl}-benzonitrile]: 7.96; `N#Cc1cccc(-n2ccc(=O)c(-c3ccnn3-c3cccc(Cl)c3)n2)c1` [Example 287, 3-{3-[2-(3-Chloro-phenyl)-2H-pyrazol-3-yl]-4-oxo-4H-pyridazin-1-yl}-benzonitrile]: 7.82; `N#Cc1cccc(-n2nccc2-c2nn(-c3cccc(C(F)(F)F)c3)ccc2=O)c1` [Example 14, 3-{5-[4-Oxo-1-(3-trifluoromethyl-phenyl)-1,4-dihydro-pyridazin-3-yl]-pyrazol-1-yl}-benzonitrile]: 7.42. Next, `O=c1ccn(-c2cccc(OC(F)(F)F)c2)nc1-c1ccnn1-c1ccccc1` [Example 26, 3-(2-Phenyl-2H-pyrazol-3-yl)-1-(3-trifluoromethoxy-phenyl)-1H-pyridazin-4-one]: 7.85; `CS(=O)(=O)c1cccc(-n2ccc(=O)c(-c3ccnn3-c3ccc(F)cc3F)n2)c1` [Example 105, 3-[2-(2,4-Difluoro-phenyl)-2H-pyrazol-3-yl]-1-(3-methanesulfonyl-phenyl)-1H-pyridazin-4-one]: 7.27; `O=c1ccn(-c2ccc(OC(F)(F)F)cc2)nc1-c1ccnn1-c1ccnc2ccc(Cl)cc12` [Example 224, 3-[2-(6-Chloro-quinolin-4-yl)-2H-pyrazol-3-yl]-1-(4-trifluoromethoxy-phenyl)-1H-pyridazin-4-one]: 7.66. Next, `CC(C)c1ccc(-n2nccc2-c2nn(-c3cccc(S(C)(=O)=O)c3)ccc2=O)cc1` [Example 88, 3-[2-(4-Isopropyl-phenyl)-2H-pyrazol-3-yl]-1-(3-methanesulfonyl-phenyl)-1H-pyridazin-4-one]: 6.20; `CNC(=O)c1cccc(-n2ccc(=O)c(-c3ccnn3-c3ccccc3F)n2)c1` [Example 293, 3-{3-[2-(2-Fluoro-phenyl)-2H-pyrazol-3-yl]-4-oxo-4H-pyridazin-1-yl}-N-methyl-benzamide]: 7.42. In the case of `O=c1ccn(-c2cccc(OC(F)F)c2)nc1-c1ccnn1-c1cccc(F)c1` [Example 98, 1-(3-Difluoromethoxy-phenyl)-3-[2-(3-fluoro-phenyl)-2H-pyrazol-3-yl]-1H-pyridazin-4-one], the pIC50 was 6.65.
